Measured values: patent publication US8506950B2, “Degradable microcapsules” (ETH Zurich, priority 2008, dated 2013)

Target: rLHR (Rattus norvegicus, UniProt P16235)
Test: PCRE dependent SEAP expression over time in HEK293T expressing rLHR or bLHR
Format: cell-based
Parameters: Full-length cDNAs encoding the LHRs of rat (r) and bovine (b) origin; expressed in transfected cells; host or cells: HEK293T, transient transfection with pLEN-rLHR
Settings: 500 ng/mL bLH, maximal SEAP expression
Experimental: HEK293T cells were transiently co-transfected for PCRE dependent SEAP expression and constitutive bLHR- or rLHR expression or with the empty vector pcDNA3.1(+). 24 hours post-transfection the cells were induced by addition of 500 ng/mL bLH or cultivated non-induced. […] (▴) rLHR+bLH; (▪) bLHR+bLH; (×) rLHR-bLH; (♦) bLHR-bLH;
Functional expression of LHRs on the cell surface results in the stimulation of PKA and an increase of intracellular cAMP in response to bLH. It was evaluated whether the activated LHR-signaling may induce a PKA-responsive promoter. […] 24 hours post-transfection the cells were induced by bLH and the SEAP expression was determined over time. […] In comparing rLHR- and bLHR-expressing cells a 3-fold increase in maximal SEAP expression in response to bLH of the rLHR over the bLHR was detected. […]
The intracellular cAMP production of cells was quantified using the cAMP Fluorescence Polarization (FP) Biotrak Immunoassay System (GE Healthcare Bio-Sciences GmbH, Otelfingen, Switzerland, Cat No. RPN3595) according to the manufacturer's protocol. The expression of firefly luciferase was determined with the Tropix Luciferase Assay Kit (Applied Biosystems, Bedford, USA, Cat No. BC100L). […] Enhanced YFP-expression was detected by fluorescence microscopy (Leica Microsystems, Wetzlar, Germany)

rLHR, sequence (P16235 27-700): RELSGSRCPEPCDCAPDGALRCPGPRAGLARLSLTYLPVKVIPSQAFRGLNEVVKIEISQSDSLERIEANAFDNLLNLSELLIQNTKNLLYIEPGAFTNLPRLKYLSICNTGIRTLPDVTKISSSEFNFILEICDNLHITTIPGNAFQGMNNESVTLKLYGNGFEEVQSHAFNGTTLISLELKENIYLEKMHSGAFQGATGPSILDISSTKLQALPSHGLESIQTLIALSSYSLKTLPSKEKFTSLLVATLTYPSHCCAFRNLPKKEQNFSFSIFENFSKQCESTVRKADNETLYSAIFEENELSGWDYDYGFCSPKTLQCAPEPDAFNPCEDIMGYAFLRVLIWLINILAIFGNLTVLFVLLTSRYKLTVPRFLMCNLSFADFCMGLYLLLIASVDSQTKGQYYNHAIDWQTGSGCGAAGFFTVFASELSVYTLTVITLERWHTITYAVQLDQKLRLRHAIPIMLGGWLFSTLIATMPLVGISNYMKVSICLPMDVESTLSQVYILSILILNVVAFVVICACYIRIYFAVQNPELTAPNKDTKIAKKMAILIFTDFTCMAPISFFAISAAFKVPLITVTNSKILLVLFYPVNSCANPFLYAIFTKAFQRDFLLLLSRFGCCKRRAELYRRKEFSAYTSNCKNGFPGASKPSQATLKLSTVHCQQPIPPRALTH

In the case of bovine luteinizing hormone [bLH], the “SEAP production of rLHR-expressing cells relative to bLHR-expressing cells” value was 3 fold.
